Here are results for 90 compounds from ChEMBL document CHEMBL3727358, “Inhibitors of inducible form of 6-phosphofructose-2-kinase” (2014).

pIC50: −log10 of the molar value.

This assay deals with 6-phosphofructo-2-kinase/fructose-2,6-bisphosphatase 3 (Homo sapiens, UniProt Q16875). Kind of assay: Inhibition of iPFK2 (unknown origin) assessed as reduction in enzyme-mediated fructose-6-phosphate phosphorylation by measuring ATP consumption incubated for 3 hrs by luciferase-luciferin-coupled chemiluminescence assay.
Sequence of 6-phosphofructo-2-kinase/fructose-2,6-bisphosphatase 3 (Q16875 whole entry): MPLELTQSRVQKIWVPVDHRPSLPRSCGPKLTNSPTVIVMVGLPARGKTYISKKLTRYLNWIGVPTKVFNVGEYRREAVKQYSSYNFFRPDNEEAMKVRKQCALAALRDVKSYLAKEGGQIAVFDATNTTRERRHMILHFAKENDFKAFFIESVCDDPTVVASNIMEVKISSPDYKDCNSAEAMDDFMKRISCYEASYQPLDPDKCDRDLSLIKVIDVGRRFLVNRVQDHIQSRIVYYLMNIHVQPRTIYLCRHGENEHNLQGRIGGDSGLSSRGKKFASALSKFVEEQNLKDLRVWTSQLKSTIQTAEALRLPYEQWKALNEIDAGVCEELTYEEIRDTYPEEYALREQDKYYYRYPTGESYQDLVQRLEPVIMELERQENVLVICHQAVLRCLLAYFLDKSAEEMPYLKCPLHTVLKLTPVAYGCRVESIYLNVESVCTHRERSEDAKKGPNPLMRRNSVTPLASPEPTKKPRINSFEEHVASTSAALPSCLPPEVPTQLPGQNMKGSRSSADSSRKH
`COc1cccc([C@H](C)Nc2cc(-c3ccc4ncoc4c3)nc(C)n2)c1`: the negative-log IC50 (pIC50) is under 6.00. With `COc1cccc([C@H](C)Nc2cc(-c3ccc4ncn(C)c4c3)nc(C)n2)c1` the figure was under 6.00; with `COc1cccc(-c2cc(NC3CCCc4ccccc43)nc(C)n2)c1` (stereo not given), under 6.00.

Take `COCC(C)Nc1cc(-c2ccc3ncsc3c2)nc(C)n1` (stereo not given): the pIC50 was under 6.00. As to `Cc1nc(N[C@@H]2CCCc3ccccc32)cc(-c2ccc3[nH]ncc3c2)n1`, the pIC50 was under 6.00.

Turning to `Cc1nc(N[C@@H]2CCCc3ccccc32)cc(-c2ccc(F)cc2)n1`, the pIC50 is 6.30.

Consider `COc1cccc(-c2cc(NC(C)c3cccc(S(=O)(=O)NCC(=O)O)c3)nc(C)n2)c1` (stereo not given), for which the negative logarithm of the IC50 (pIC50) is under 6.00. With `COc1cccc([C@H](C)Nc2cc(-c3cc(OC)c(OC)c(OC)c3)nc(C)n2)c1` the figure was under 6.00; with `CCOC(=O)Cc1coc2ccc(-c3cc(N[C@@H]4CCCc5ccccc54)nc(C)n3)cc12`, under 6.00; with `Cc1nc(N[C@@H]2CCCc3ccccc32)cc(-c2cccc(Cl)c2)n1`, 6.30. Turning to `COc1cccc([C@H](C)Nc2cc(-c3ccccc3F)nc(C)n2)c1`, the negative logarithm of the IC50 (pIC50) is under 6.00. Consider `Cc1nc(N[C@@H]2CCCc3ccccc32)cc(-c2cccc3cc[nH]c23)n1`, for which the pIC50 was under 6.00. As to `CCC(C)Nc1cc(-c2ccc3ncsc3c2)nc(C)n1` (stereo not given), the pIC50 was under 6.00.

Turning to `CCCCCNc1cc(-c2ccc3ncsc3c2)nc(C)n1`, the pIC50 was under 6.00. With `Cc1nc(NC(C)c2cccc(OCc3ccccc3)c2)cc(-c2ccc3ncsc3c2)n1` (stereo not given) the figure was under 6.00; with `COc1cccc([C@@H](C)Nc2cc(-c3ccc4ncsc4c3)nc(C)n2)c1`, under 6.00. Turning to `Cc1nc(NC(C)c2cccc(OCc3cccnc3)c2)cc(-c2ccc3ncsc3c2)n1` (stereo not given), the pIC50 was 6.30. In the case of `Cc1nc(N[C@@H]2CCCc3ccccc32)cc(-c2cccc(OC(F)(F)F)c2)n1` it was under 6.00.

On to `Cc1nc(N[C@@H]2CCCc3ccccc32)cc(-c2cccc3c2ccn3C)n1`, for which the pIC50 was under 6.00. With `COCc1cccc(-c2cc(N[C@@H]3CCCc4ccccc43)nc(C)n2)c1` the figure was under 6.00. In the case of `COc1cccc(-c2cc(NC(CCO)c3cccc(OC)c3)nc(C)n2)c1` (stereo not given) it was under 6.00. With `Cc1nc(N[C@@H]2CCCc3ccccc32)cc(-c2cccc3[nH]ccc23)n1` the figure was under 6.00; with `Cc1nc(NC(C)c2cccc(-c3cnn(C)c3)c2)cc(-c2ccc3c(c2)N(C)CCO3)n1` (stereo not given), 6.30; with `CCOC(=O)CC(Nc1cc(-c2cccc(OC)c2)nc(C)n1)c1cccc(OC)c1` (stereo not given), under 6.00. With `COc1cccc([C@H](C)Nc2cc(-c3cc(OC)ccc3Cl)nc(C)n2)c1`, the pIC50 was under 6.00. With `Cc1nc(NC(C)c2cccc(-c3cnn(C)c3)c2)cc(-c2ccc3c(c2)OCCO3)n1` (stereo not given) the figure was under 6.00; with `Cc1nc(N[C@@H](C)c2cccc(-c3cccn3C)c2)cc(-c2ccc3ncsc3c2)n1`, under 6.00; with `Cc1nc(N[C@@H]2CCCc3ccccc32)cc(-c2ccc3c(c2)N(CCO)CC3)n1`, under 6.00. On to `COc1cccc([C@H](C)Nc2cc(-c3cccc(N(C)C)c3)nc(C)n2)c1`, for which the negative logarithm of the IC50 (pIC50) is under 6.00.

`COc1cccc([C@H](C)Nc2cc(-c3ccc4cc[nH]c4c3)nc(C)n2)c1`: the pIC50 is under 6.00. With `COc1cccc(-c2cc(NC(C)c3cccc(NCC(=O)O)c3)nc(C)n2)c1` (stereo not given) the figure was under 6.00; with `Cc1nc(NC(C)c2cccc(OCc3csc(C)n3)c2)cc(-c2ccc3ncsc3c2)n1` (stereo not given), 6.30. In the case of `Cc1nc(NC(C)c2cccc(-c3ccoc3)c2)cc(-c2ccc3occ(C)c3c2)n1` (stereo not given) it was 6.30; in that of `Cc1nc(N[C@@H](C)c2cccc(-c3cc[nH]n3)c2)cc(-c2ccc3ncsc3c2)n1`, 6.30; in that of `Cc1nc(N[C@@H]2CCCc3ccccc32)cc(-c2ccc3nc[nH]c3c2)n1`, under 6.00.

As for `CCc1ccc(-c2cc(NC(C)c3cccc(-c4cnn(C)c4)c3)nc(C)n2)cc1` (stereo not given), the pIC50 is 6.30. With `CC(=O)N1CCOc2ccc(-c3cc(N[C@@H]4CCCc5ccccc54)nc(C)n3)cc21` the figure was under 6.00. Consider `Cc1nc(NC(C)c2cccc(-c3cnn(C)c3)c2)cc(-c2cccc(O)c2)n1` (stereo not given), for which the pIC50 is 6.30.

As for `Cc1nc(NC(C)c2cccc(-c3ccsc3)c2)cc(-c2ccc3occ(C)c3c2)n1` (stereo not given), the pIC50 is under 6.00. As to `COc1cccc([C@H](C)Nc2cc(-c3ccc(F)cc3)nc(C)n2)c1`, the pIC50 was under 6.00. In the case of `COc1cccc([C@H](C)Nc2cc(-c3cccc4[nH]ccc34)nc(C)n2)c1` it was under 6.00; in that of `Cc1nc(NC(C)c2cccc(OCC(=O)NCCN(C)C)c2)cc(-c2ccc3ncsc3c2)n1` (stereo not given), 6.30. In the case of `Cc1nc(NC2CCOc3ccc([N+](=O)[O-])cc32)cc(-c2ccc3ncsc3c2)n1` (stereo not given) it was under 6.00. As to `CCc1coc2ccc(-c3cc(NC(C)c4cccc(-c5cnn(C)c5)c4)nc(C)n3)cc12` (stereo not given), the pIC50 was under 6.00. Regarding `COC(=O)CNc1cccc(CNc2cc(-c3cccc(OC)c3)nc(C)n2)c1`, the pIC50 was under 6.00. In the case of `CNc1ccc(-c2cc(N[C@@H]3CCCc4ccccc43)nc(C)n2)cc1` it was 6.30; in that of `COc1cccc([C@H](C)Nc2cc(-c3ccc(N(C)C)cc3)nc(C)n2)c1`, under 6.00. For the compound `Cc1nc(NCCc2ccccn2)cc(-c2ccc3ncsc3c2)n1`, the pIC50 is under 6.00. Regarding `CC(=O)Nc1ccc2c(c1)C(Nc1cc(-c3ccc4ncsc4c3)nc(C)n1)CCO2` (stereo not given), the pIC50 was under 6.00. With `CCC(Nc1cc(-c2cccc(OC)c2)nc(C)n1)c1cccc(OC)c1` (stereo not given) the figure was under 6.00. In the case of `Cc1nc(NC(C)c2cccc(OCCF)c2)cc(-c2ccc3ncsc3c2)n1` (stereo not given) it was 6.30; in that of `COc1cccc([C@H](C)Nc2cc(-c3cccc(Cl)c3)nc(C)n2)c1`, 6.30; in that of `Cc1nc(NC(C)c2cccc(OCCCC(=O)N(C)C)c2)cc(-c2ccc3ncsc3c2)n1` (stereo not given), 6.30. For the compound `Cc1nc(NCCc2ccc(O)cc2)cc(-c2ccc3ncsc3c2)n1`, the pIC50 was under 6.00.

On to `COc1cccc([C@@H](C)Nc2cc(-c3ccc4occ(C)c4c3)nc(C)n2)c1`, for which the pIC50 was under 6.00. In the case of `Cc1nc(NCCC(C)C)cc(-c2ccc3ncsc3c2)n1` it was 6.30; in that of `CCOC(=O)CCNC(=O)CC(Nc1cc(-c2cccc(OC)c2)nc(C)n1)c1cccc(OC)c1` (stereo not given), under 6.00.

For the compound `COC(=O)CN1CCc2ccc(-c3cc(N[C@@H]4CCCc5ccccc54)nc(C)n3)cc21`, the pIC50 is under 6.00.

As to `Cc1nc(NC(C)c2cccc(N3CCOCC3)c2)cc(-c2ccc3ncsc3c2)n1` (stereo not given), the pIC50 is 6.30. On to `CCCCCC(C)Nc1cc(-c2ccc3ncsc3c2)nc(C)n1` (stereo not given), for which the pIC50 is under 6.00. Regarding `Cc1nc(NC(C)c2cccc(OCCn3cccc3)c2)cc(-c2ccc3ncsc3c2)n1` (stereo not given), the pIC50 was under 6.00. In the case of `Cc1nc(N[C@@H]2CCCc3ccccc32)cc(-c2ccc3c(c2)NCC3)n1` it was under 6.00; in that of `COc1cccc(-c2cc(NC(CC(=O)NCCCN(C)C)c3cccc(OC)c3)nc(C)n2)c1` (stereo not given), under 6.00.

On to `COc1ccc(F)c(CNc2cc(-c3ccc4ncsc4c3)nc(C)n2)c1Cl`, for which the pIC50 was under 6.00. In the case of `COC(=O)CN(C(=O)OC(C)(C)C)S(=O)(=O)c1cccc(C(C)Nc2cc(-c3cccc(OC)c3)nc(C)n2)c1` (stereo not given) it was under 6.00; in that of `Cc1nc(N[C@@H](C)c2cccc(-c3ccccc3)c2)cc(-c2ccc3ncsc3c2)n1`, under 6.00; in that of `Cc1nc(NC2CC(C)(C)Oc3ccccc32)cc(-c2ccc3ncsc3c2)n1` (stereo not given), 6.30. With `CCn1cnc2ccc(-c3cc(N[C@@H]4CCCc5ccccc54)nc(C)n3)cc21` the figure was under 6.00. As for `COc1cccc(C(CCC#N)Nc2cc(-c3ccc4ncsc4c3)nc(C)n2)c1` (stereo not given), the pIC50 was under 6.00. On to `Cc1nc(NC(C)c2cccc(Br)c2)cc(-c2ccc3ncsc3c2)n1` (stereo not given), for which the pIC50 is 6.30. For `Cc1nc(N[C@@H]2CCCc3ccccc32)cc(-c2ccc3c(ccn3C)c2)n1`, the pIC50 is 6.30. In the case of `COc1cccc([C@H](C)Nc2cc(-c3cccc4cc[nH]c34)nc(C)n2)c1` it was under 6.00; in that of `COc1cccc([C@H](C)Nc2cc(-c3ccc4[nH]ncc4c3)nc(C)n2)c1`, under 6.00; in that of `Cc1nc(N[C@@H]2CCCc3ccccc32)cc(-c2ccc3c(c2)NCCO3)n1`, 6.30.

For `Cc1nc(NC(C)c2cccc(OCCCN(C)C)c2)cc(-c2ccc3ncsc3c2)n1` (stereo not given), the pIC50 was 6.30. With `COc1cccc(-c2cc(N[C@H]3CCCc4ccccc43)nc(C)n2)c1` the figure was under 6.00.

With `Cc1nc(NC(C)c2cccc(OCc3ccn(C)n3)c2)cc(-c2ccc3occc3c2)n1` (stereo not given), the negative logarithm of the IC50 (pIC50) was 6.30.

`Cc1nc(N[C@@H](C)c2cccc(-c3ccccc3)c2)cc(-c2ccc3occ(C)c3c2)n1`: the pIC50 was 6.30. With `Cc1nc(N[C@@H]2CCCc3ccccc32)cc(-c2ccc3c(c2)OC(F)(F)O3)n1` the figure was under 6.00; with `Cc1nc(NCCC2=CCCCC2)cc(-c2ccc3ncsc3c2)n1`, 6.30. In the case of `Cc1nc(NC(C)c2cccc(OCC(O)CF)c2)cc(-c2ccc3ncsc3c2)n1` (stereo not given), the pIC50 is 6.30. For the compound `COc1cccc(-c2cc(Nc3cccc4ccccc34)nc(C)n2)c1`, the pIC50 was under 6.00.

For the compound `Cc1nc(N[C@H]2CCCc3ccccc32)cc(-c2ccc3ncsc3c2)n1`, the pIC50 was 6.30.

As to `CCCOc1cccc(C(C)Nc2cc(-c3ccc4ncsc4c3)nc(C)n2)c1` (stereo not given), the pIC50 was under 6.00. Take `COc1cccc([C@H](C)Nc2cc(-c3ccccc3C)nc(C)n2)c1`: the pIC50 is under 6.00. With `Cc1nc(N[C@@H]2CCCc3ccccc32)cc(-c2ccc3c(c2)N(CCO)CCO3)n1`, the negative logarithm of the IC50 (pIC50) was under 6.00. In the case of `Cc1nc(N[C@@H]2CCCc3ccccc32)cc(-c2ccc3cn[nH]c3c2)n1` it was under 6.00.

On to `Cc1nc(N[C@@H]2CCCc3ccccc32)cc(-c2ccc3occ(CC(=O)NCCO)c3c2)n1`, for which the pIC50 was under 6.00. For `COc1cccc([C@H](C)Nc2cc(-c3ccccc3Cl)nc(C)n2)c1`, the pIC50 is under 6.00. In the case of `Cc1nc(N[C@@H](C)C(C)(C)C)cc(-c2ccc3ncsc3c2)n1` it was under 6.00.
